Experimental data taken from ChEMBL document CHEMBL5329151, “Novel pirfenidone derivatives: synthesis and biological evaluation” (2023).
The source made the active and inactive calls. The rule behind the calls is not given here.

Legend:
[1] = system: 3T3-L1; experiment: Inhibition of cell growth in mouse 3T3-L1 cells after 24 to 48 hrs by MTT assay; assay type: functional, cell-based; conditions: time 24-48 hrs
[2] = system: 3T3-L1; experiment: Inhibition of cell growth in mouse 3T3-L1 cells at […] after 24 to 48 hrs by MTT assay; assay type: functional; conditions: dose 2 mmol/L, time 24-48 hrs
[3] = system: 3T3-L1; experiment: Inhibition of cell growth in mouse 3T3-L1 cells at 0.5 to 2 mmol/L by MTT assay; assay type: functional, cell-based; conditions: dose 0.5-2 mmol/L, time 24-48 hrs, TDE = time-dependent effect
[4] = system: 3T3-L1; experiment: Inhibition of fibronectin secretion in mouse 3T3-L1 cells assessed as reduction in accumulation of fibronectin in extracellular matrix incubated for 48 hrs by ELISA (reference value: 1389.10 +/- 9.19 ng/ml); assay type: functional, cell-based; conditions: dose 0.5-2 mmol/L

Row | SMILES | inhibition [1] | inhibition at 2000 µM [2] [%] | inhibition [3] | inhibition [4]
1 | Cc1ccc(=O)n(-c2ccccc2)c1 | Dose-Dependent Effect |  |  | 
2 | O=c1ccccn1-c1ccc(C2=NC3CCCCC3N2)cc1 (stereo not drawn) | Dose-Dependent Effect | 95.4 | Tde | Active
3 | N/N=C/c1ccc(-n2ccccc2=O)cc1 | Dose-Dependent Effect |  | Tde | Active
4 | NC(=S)N/N=C\c1ccc(-n2ccccc2=O)cc1 | Dose-Dependent Effect |  | Tde | Active
5 | O=c1ccccn1-c1ccc(C2=NCCN2)cc1 | Dose-Dependent Effect |  | Tde | Active
6 | O=c1ccccn1-c1ccc(C2=NCCCN2)cc1 | Dose-Dependent Effect |  | Tde | Active
7 | O=c1ccccn1-c1ccc(/C=N\Nc2ccccc2)cc1 | Dose-Dependent Effect |  | Tde | Active
8 | NC(=O)N/N=C\c1ccc(-n2ccccc2=O)cc1 | Dose-Dependent Effect |  | Tde | Active
